Source: the NIST ThermoML archive (doi:10.1016/j.jct.2005.05.018)
Values joined by “and” are separate entries in the source; they are usually repeats but may differ in a detail not shown here. Identical values can stand only once.

Conditions: Liquid, Closed cell (Static) method

C[CH2][Sb]([CH2]C)[CH2]C [triethylstibine]
Conditions | vapor or sublimation pressure
238.42 K | 0.0037 kPa
243.46 K | 0.00611 kPa and 0.0061 kPa
248.47 K | 0.00991 kPa and 0.00989 kPa and 0.0099 kPa
253.48 K | 0.01569 kPa
258.48 K | 0.02451 kPa and 0.02448 kPa and 0.02449 kPa
263.48 K | 0.03735 kPa and 0.03734 kPa and 0.03733 kPa
268.48 K | 0.0557 kPa and 0.05561 kPa and 0.0556 kPa
273.68 K | 0.08268 kPa [middle of 4 runs]
278.49 K | 0.1181 kPa and 0.118 kPa
283.49 K | 0.1676 kPa
285.99 K | 0.1995 kPa
288.49 K | 0.2362 kPa and 0.2363 kPa
290.99 K | 0.2791 kPa and 0.279 kPa
293.49 K | 0.3288 kPa and 0.3282 kPa and 0.3281 kPa
295.99 K | 0.3849 kPa and 0.385 kPa
298.49 K | 0.4505 kPa and 0.4504 kPa and 0.4503 kPa
301 K | 0.5246 kPa
